Source: patent publication US9708334B2, “Substituted 2,4,5,6-tetrahydropyrrolo[3,4-c]pyrazole and 4,5,6,7-tetrahydro-2H-pyrazolo[4,3-c]pyridine compounds as GlyT1 inhibitors” (DART NEUROSCIENCE (CAYMAN) LTD., priority 2014, dated 2017)

Biological target: T1, GlyT1 (Homo sapiens, UniProt P48067)
T1 construct: expressed in transfected cells
T1 sequence (P48067 1-706): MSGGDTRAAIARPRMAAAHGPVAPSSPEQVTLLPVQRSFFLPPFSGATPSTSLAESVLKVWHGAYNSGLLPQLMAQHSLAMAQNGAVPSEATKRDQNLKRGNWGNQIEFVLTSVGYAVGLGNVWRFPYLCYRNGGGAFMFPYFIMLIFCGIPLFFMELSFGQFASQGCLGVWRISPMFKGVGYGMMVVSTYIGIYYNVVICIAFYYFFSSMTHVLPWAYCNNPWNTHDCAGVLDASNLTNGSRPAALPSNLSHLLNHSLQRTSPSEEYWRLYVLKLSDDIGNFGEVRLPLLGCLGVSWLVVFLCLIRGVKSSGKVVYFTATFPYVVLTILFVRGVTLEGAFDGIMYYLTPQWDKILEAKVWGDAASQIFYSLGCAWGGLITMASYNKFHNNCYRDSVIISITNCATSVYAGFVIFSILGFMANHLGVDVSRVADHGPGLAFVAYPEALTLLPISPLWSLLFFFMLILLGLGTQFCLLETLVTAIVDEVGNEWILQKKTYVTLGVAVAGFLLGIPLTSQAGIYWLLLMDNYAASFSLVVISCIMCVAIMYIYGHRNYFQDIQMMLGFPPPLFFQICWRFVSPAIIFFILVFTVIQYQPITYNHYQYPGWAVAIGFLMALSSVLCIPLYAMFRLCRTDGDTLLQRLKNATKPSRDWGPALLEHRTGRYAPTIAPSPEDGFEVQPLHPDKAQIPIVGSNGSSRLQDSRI
Assay: Glycine Transporter 1 (GlyT1) uptake assay, scintillation proximity assay of [14C]-glycine uptake
Type: cell-based
Details: SPA, four parameter logistic fit, read-out: GlyT1 (pIC50) (converted)
Description: Glycine Transporter 1 (GlyT1) Uptake Assay
Plates were then read on a MicroBeta plate counter (Perkin Elmer). Dose-response data for tested compounds were analyzed and curves were fit using a four parameter logistic fit to determine IC50 values. […]

Row | IC50 | Structure (SMILES)
1 | 100 to 1000 nM | CCCC(C)Oc1ccc(C#N)c(OC)c1C(=O)N1Cc2cn(-c3ccc(F)cc3)nc2C1 (stereo not drawn) [Example 521, 3-[2-(4-Fluorophenyl)-2H 4H 5H 6H-pyrrolo[3,4-c]pyrazole-5-carbonyl]-2-methoxy-4-(pentan-2-yloxy)benzonitrile]
2 | < 100 nM | COc1c(C#N)ccc(OCC(C)(C)C)c1C(=O)N1Cc2cn(-c3cncc(F)c3)nc2C1 [Example 321, 4-(2 2-Dimethylpropoxy)-3-[2-(5-fluoropyridin-3-yl)-2H 4H 5H 6H-pyrrolo[3,4-c]pyrazole-5-carbonyl]-2-methoxybenzonitrile]
3 | < 100 nM | COc1c(C(=O)N2CCC2)ccc(OC(C)C(F)(F)F)c1C(=O)N1CCc2nn(-c3ccc(F)cc3)cc2C1 (stereo not drawn) [Example 479, 1-{3-[2-(4-Fluorophenyl)-2H 4H 5H 6H 7H-pyrazolo[4,3-c]pyridine-5-carbonyl]-2-methoxy-4-[(1 1 1-trifluoropropan-2-yl)oxy]benzoyl}azetidine]
4 | 100 to 1000 nM | COc1c(C#N)ccc(OCC(F)F)c1C(=O)N1Cc2cn(-c3ccc(F)cn3)nc2C1 [Example 330, 4-(2 2-Difluoroethoxy)-3-[2-(5-fluoropyridin-2-yl)-2H 4H 5H 6H-pyrrolo[3,4-c]pyrazole-5-carbonyl]-2-methoxybenzonitrile]
5 | < 100 nM | CC(C)Oc1ccc(S(C)(=O)=O)cc1C(=O)N1Cc2cn(-c3cccc(C(F)(F)F)c3F)nc2C1 [Example 46, 2-[2-Fluoro-3-(trifluoromethyl)phenyl]-5-[5-methanesulfonyl-2-(propan-2-yloxy)benzoyl]-2H 4H 5H 6H-pyrrolo[3,4-c]pyrazole]
6 | 1000 to 10000 nM | CC(Oc1ccc(C(N)=O)cc1C(=O)N1CCc2nn(-c3ccc(F)cc3)cc2C1)C(F)(F)F (stereo not drawn) [Example 7, 3-(2-(4-Fluorophenyl)-4,5,6,7-tetrahydro-2H-pyrazolo[4,3-c]pyridine-5-carbonyl)-4-((1,1,1-trifluoropropan-2-yl)oxy)benzamide]
7 | 100 to 1000 nM | Cc1nc(-n2cc3c(n2)CN(C(=O)c2c(O[C@@H](C)C(F)(F)F)ccc(C#N)c2Cl)C3)cn1C [Example 282, 2-Chloro-3-[2-(1 2-dimethyl-1H-imidazol-4-yl)-2H 4H 5H 6H-pyrrolo[3,4-c]pyrazole-5-carbonyl]-4-{[(2S)-1 1 1-trifluoropropan-2-yl]oxy}benzonitrile]
8 | < 100 nM | C[C@H](Oc1ccc(C#N)cc1C(=O)N1Cc2cn(-c3cncc(F)c3)nc2C1)C(F)(F)F [Example 343]
9 | 100 to 1000 nM | COc1c(C#N)ccc(O[C@@H](C)C(F)(F)F)c1C(=O)N1CCc2nn(-c3ccc(C(F)(F)F)nc3)cc2C1 [Example 238, 2-Methoxy-3-{2-[6-(trifluoromethyl)pyridin-3-yl]-2H 4H 5H 6H 7H-pyrazolo[4,3-c]pyridine-5-carbonyl}-4-{[(2S)-1 1 1-trifluoropropan-2-yl]oxy}benzonitrile]
10 | < 100 nM | Cc1nc(-n2cc3c(n2)CN(C(=O)c2c(O[C@@H](C)C(F)(F)F)ccc(C#N)c2Cl)C3)ccc1F [Example 295, 2-Chloro-3-[2-(5-fluoro-6-methylpyridin-2-yl)-2H 4H 5H 6H-pyrrolo[3,4-c]pyrazole-5-carbonyl]-4-{[(2S)-1 1 1-trifluoropropan-2-yl]oxy}benzonitrile]
11 | 100 to 1000 nM | N#Cc1ccc(C2CCCC2)c(C(=O)N2CCc3nn(-c4ccccc4)cc3C2)c1 [Example 169, 4-Cyclopentyl-3-{2-phenyl-2H 4H 5H 6H 7H-pyrazolo[4,3-c]pyridine-5-carbonyl}benzonitrile]

Row | Structure (SMILES) | IC50
12 | COc1c(C#N)ccc(C2(F)CCCC2)c1C(=O)N1Cc2cn(-c3ccnc(C)c3)nc2C1 [Example 376, 4-(1-Fluorocyclopentyl)-2-methoxy-3-[2-(2-methylpyridin-4-yl)-2H 4H 5H 6H-pyrrolo[3,4-c]pyrazole-5-carbonyl]benzonitrile] | < 100 nM
